Data published in BigSolDB 2.1.

COc1ccc(C(=O)c2ccc(OC)cc2)cc1
solubility (mole fraction)
Settings	in benzene	in ethanol	in ethyl acetate	in isobutanol	in isopropanol	in methanol	in methyl acetate	in n-butanol	in n-propanol	in n-propyl acetate
293.15 K	0.0123	0.00091	0.00908	0.00101	0.00079	0.00067	0.00958	0.00114	0.00114	0.00947
298.15 K	0.0149	0.00109	0.0111	0.00137	0.001	0.00081	0.0115	0.00164	0.00141	0.0112
303.15 K	0.018	0.00141	0.0129	0.00168	0.0013	0.00104	0.0138	0.00214	0.00177	0.0126
308.15 K	0.0221	0.00188	0.0155	0.00237	0.00193	0.00134	0.0166	0.00306	0.00224	0.0151
313.15 K	0.0278	0.0024	0.0189	0.00313	0.00241	0.00181	0.0204	0.0036	0.00314	0.0187
318.15 K	0.0338	0.00302	0.023	0.00404	0.00308	0.00219	0.0248	0.00457	0.00403	0.0229
323.15 K	0.041	0.00402	0.0284	0.00539	0.00423	0.00286	0.0311	0.00612	0.00538	0.0277
328.15 K	0.0504	0.00516	0.0343	0.00718	0.00549	0.0037	0.0376	0.00824	0.00707	0.0329
333.15 K	0.063	0.00653	0.0408	0.00972	0.0075	0.00473	–	0.00996	0.00928	0.0406
